Measurements reported in patent publication US10030044B2, “Nucleotides for the treatment of liver cancer” (IDENIX PHARMACEUTICALS LLC, priority 2013, dated 2018).
pIC50: −log10 of the molar value.

Assays:
[1] = test system: HepG2 cell line; test: In Vitro Inhibition of Hep G2 Hepatocytes (CellTiter-Glo, 72 hr); assay type: cell-based; conditions: HepG2 cells, 72 hr exposure
Description: Cells were grown in RPMI-1640 supplemented with L-glutamine and 10% FBS: HepG2.
96 well plates of HepG2 cell line were seeded with the optimized number of cells per well in a total volume of 50 μL per well. The plates were left overnight. Some wells were seeded with 100 μL of media for media control. The following day, cells were exposed to test compounds. At same time as drug exposure, a CTG assay was conducted on 1st plate for the 0 hr count.
2× stocks of each compound in media were prepared for dosing, as follows:
50 μL of above 2× stocks were added to cells and medium already on plate to give final concentrations. 50 μL media were added to cell control wells, and 50 μL of mix added to vehicle control wells. 10 μM Dox was added to appropriate wells. Cells exposed to test compounds were incubated at 37° C. for 72 hr followed by a CTG assay.
At the end of the 72 hr exposure period, plates were removed for a CellTiter-Glo (CTG) assay from a 37° C., 5% CO2 incubator and placed on the bench at room temperature for 30 mins. 100 μL of CellTiter-Glo reagent was added and mixed for 2 mins, followed by a further 10 min incubation at room temperature. Luminescence was recorded using Synergy 4.0.

[2] = Mouse liver pharmacokinetics (liver triphosphate levels) following a single oral dose; assay type: in vivo, mice; conditions: for Fold change Mouse Liver GemC TP compared to Gemcitabine / Fold change Mouse Liver GemC TP produced compared to GemU TP: single oral dose, calculated from Table 2 data
Description: A single oral dose of test compound in PEG 200 (dose volume 5 mL/kg) was administered to C57BL/6 male mice. Five untreated animals were used for the collection of control plasma and liver. Terminal plasma and liver samples were collected from three animals per time point at 1, 2, 4, 12, and 24 hours post dose. Liver specimens were collected from all animals immediately after the incision. Freezing forceps stored in liquid nitrogen were used to freeze the liver before excision. […]
Liver samples were analyzed for corresponding active triphosphate species by LC-MS/MS. Triphosphate levels were assayed by homogenizing (on ice) a known weight of mouse liver with 4× volume of 0.95 M trichloroacetic acid (TCA). Internal standard solution was added to the homogenate followed by neutralization with 20% ammonium hydroxide solution and addition of 500 μL 1% formic acid. The tissue samples were extracted by weak anion exchange solid phase extraction (SPE). Post extraction, the eluates were evaporated under nitrogen, followed by reconstitution before injection onto the LC-MS/MS system. The samples were chromatographed on a Luna NH2 column using a gradient system of ammonium acetate (1 mM to 20 mM and pH 8.0 to pH 10.0) in water and acetonitrile (70:30). The analyte was detected and quantified by tandem mass spectrometry in positive ion mode on an API4000 equipped with a Turbo Ionspray® interface. The calibration range was 10 to 10000 pmol/mL in mouse liver homogenate (50 to 50000 pmol/g of mouse liver).

SMILES: CC(C)OC(=O)[C@@H](C)NP(=O)(OC[C@H]1O[C@@H](n2ccc(N)nc2=O)C(F)(F)[C@@H]1O)Oc1ccccc1 (single isomer, unassigned) [Compound 4, Diastereomer 1]
- pIC50 ([1]; Homo sapiens): < 5.00
- Clast ([2]; analyte GemU TP in mouse liver, single oral dose 182 mg/kg in PEG 200, 182 mg/kg): +++ (5,000 < +++ ≤ 15,000)
- Fold change Mouse Liver GemC TP compared to Gemcitabine [2]: ++++++ (100 < ++++++)
- Fold change Mouse Liver GemC TP produced compared to GemU TP [2]: ++++ (25 < ++++ ≤ 50)

SMILES: CC(C)OC(=O)[C@@H](C)NP(=O)(OC[C@H]1O[C@@H](n2ccc(N)nc2=O)C(F)(F)[C@@H]1O)Oc1ccccc1 (single isomer, unassigned) [Compound 4, Diastereomer 2]
- pIC50 [1]: < 5.00
- Fold change Mouse Liver GemC TP compared to Gemcitabine [2]: ++ (5 < ++ ≤ 10)
- Fold change Mouse Liver GemC TP produced compared to GemU TP [2]: +++ (10 < +++ ≤ 25)

SMILES: C[C@H](NP(=O)(OC[C@H]1O[C@@H](n2ccc(N)nc2=O)C(F)(F)[C@@H]1O)Oc1ccccc1)C(=O)OCc1ccccc1 (single isomer, unassigned) [drawing 124]
- pIC50 ([1]; Homo sapiens): 5.00 to 6.00
- Fold change Mouse Liver GemC TP compared to Gemcitabine ([2]; listed as drawing 131): + (+ ≤ 5)
- Fold change Mouse Liver GemC TP produced compared to GemU TP ([2]; listed as drawing 131): + (+ ≤ 5)

SMILES: C[C@H](NP(=O)(OC[C@H]1O[C@@H](n2ccc(N)nc2=O)C(F)(F)[C@@H]1O)Oc1ccccc1)C(=O)OCc1ccccc1 (single isomer, unassigned) [drawing 127]
- Fold change Mouse Liver GemC TP compared to Gemcitabine ([2]; listed as drawing 130): ++++ (25 < ++++ ≤ 50)
- Fold change Mouse Liver GemC TP produced compared to GemU TP ([2]; listed as drawing 130): +++ (10 < +++ ≤ 25)

SMILES: Nc1ccn([C@@H]2O[C@H](CO)[C@@H](O)C2(F)F)c(=O)n1 [Gemcitabine, gemcitabine]
- Fold change Mouse Liver GemC TP produced compared to GemU TP [2]: + (+ ≤ 5)

SMILES: Nc1ccn([C@@H]2O[C@H](CO)[C@@H](O)C2(F)F)c(=O)n1 [drawing 125]
- pIC50 ([1]; Homo sapiens): ≥ 8.00
